Experimental data taken from patent publication US10648038B2, “Biomarkers to identify patients that will respond to treatment and treating such patients” (Acetylon Pharmaceuticals, Inc., priority 2012, dated 2020).

System: 65 cancer cell lines
Test: Cell viability screening of a panel of 65 cancer cell lines, association with cancer type and gene mutation
Format: cell-based, human
Procedure: 65 cancer cell lines (including 12 of breast cancer, 11 of hematologic cancer, 9 of colorectal cancer, 6 of lung cancer, 6 of skin cancer, 4 brain cancer, 3 of renal cancer, 3 of liver cancer, 3 of prostate cancer, 3 of pancreatic cancer, 3 of ovarian cancer, and 2 of stomach cancer) were selected for analysis. Each of the cell lines was cultured and treated with the HDAC6 inhibitor, Compound A, with or without the proteasome inhibitor, bortezomib, before their cell viabilities were measured at the end of treatments. The sensitivities of the cell lines were described using the concentration of Compound A that provides 50% inhibition of cell viabilities (IC50). In all analyses, the logarithm of drug sensitivity values (i.e., Log [IC50]) was used, which is more normally distributed than the raw IC50 values. This is because most standard statistical tests (e.g., t-test and correlation analysis) assume the normal distribution of data points.
For the association tests of gene mutations, 50 common oncogene/tumor suppressor genes were selected to analyze the results. Mutation profiles of the cell lines were downloaded from the Sanger COSMIC DB on the Internet: www dot sanger dot ac dot uk/cosmic. For each gene locus, the “Fisher's Exact Test” was used to calculate statistical significance (p<0.05) of association between the genotype and the cell sensitivities to the treatments.

[1] = most cell lines of the panel, agent alone

SMILES | sensitivity of cell lines to treatment (cell viability) (a number of lymphoma and leukemia cell lines, single agent) | sensitivity of cell lines to treatment (cell viability) (breast cancer cell lines with Her2 protein overexpression (ERBB2 amplification), Fisher's Exact Test p<0.05) | sensitivity of cell lines to treatment (cell viability) (breast cancer cell lines, basal-type or triple negative, Fisher's Exact Test p<0.05) | sensitivity of cell lines to treatment (cell viability) (cell lines for hematologic malignant cancer, Compound A alone) | sensitivity of cell lines to treatment (cell viability) (lymphoma cells, compared with other cell groups of the 65 lines) | sensitivity of cell lines to treatment (cell viability) [1]
O=C(CCCCCCNC(=O)c1cnc(N(c2ccccc2)c2ccccc2)nc1)NO [Compound A, 2-(diphenylamino)-N-(7-(hydroxyamino)-7-oxoheptyl)pyrimidine-5-carboxamide] | substantial sensitivity | sensitive | resistant | most sensitive | most sensitive | resistant
CC(C)C[C@H](NC(=O)[C@H](Cc1ccccc1)NC(=O)c1cnccn1)B(O)O [bortezomib, reference compound] | – | – | – | – | – | resistant
